{
  "source": "patent US20090280098A1",
  "about": "(priority 2006, published 2009)",
  "key": {"cellooligosaccharide": {"system": "cellooligosaccharide", "type": "cell-based"}, "[1]": {"system": "enzymatic activity for fatty acid synthesis", "conditions": "cellobiose-added feedstuff; cited from earlier work"}, "[2]": {"system": "enzymatic activity for fatty acid degradation", "conditions": "cellobiose-added feedstuff; cited from earlier work"}, "[3]": {"conditions": "cellobiose-added high sucrose food for 4 weeks; versus control rats; cited from earlier work"}},
  "note": "“And” between values parts separate entries of the source, which are not always exact repeats. Equal entries are not always repeated.",
  "data": [
    {"molecule": "Bifidobacterium", "values": [
      {"measurement": "Amount of produced Lactic acid", "setting": "cellooligosaccharide", "result": "1.01 mM and 1.08 mM"}
    ]},
    {"molecule": "O=C[C@H](O)[C@@H](O)[C@H](O[C@@H]1O[C@H](CO)[C@@H](O)[C@H](O)[C@H]1O)[C@H](O)CO", "note": "[cellobiose]", "values": [
      {"measurement": "enzymatic activity for fatty acid synthesis", "setting": "[1]", "result": "inhibited"},
      {"measurement": "enzymatic activity for fatty acid degradation", "setting": "[2]", "result": "increased"},
      {"measurement": "body fat ratio", "setting": "[3]", "result": "reduced"},
      {"measurement": "levels of total cholesterol and neutral fat", "setting": "[3]", "result": "reduced"}
    ]}
  ]
}
